Experimental data published in patent US7094789B2, “5-substituted isoquinoline derivatives” (Asahi Kasei Pharma Corporation, priority 2002, dated 2006).
Structures can show the parent of a compound that is named as a salt.

Legend:
[1] = system: thoracic aorta constricted with phenylephrine; experiment: Vasoconstriction inhibitory action (Test Example 2); parameters: species or system Rats (Wistar); details: result in words; rat thoracic aorta, phenylephrine
From the text: Rats (Wistar, 11-week old) were bleeded to death and laparotomized to take out the thoracic aorta. That aorta was cut into a ring of a length of about 3 mm in a conventional manner (Asano, T., et al., J. Pharmacol. Exp. Ther., 241, pp. 1033–1040 (1987)) and hung in 10-ml organ bath filled with Krebs-Hensright nutrient solution bubbled with a mixed gas of 95% O2 and 5% CO2. One end of the blood vessel was connected to an isometric transducer (FD Pickup TB-912T, Nihon Kohden) and applied with 2.5 g of resting tension, and constriction and relaxation reactions of the aorta were recorded. The aorta was constricted with phenylephrine (1 μM, Sigma) and then added with a test compound (1 μM), and the vasoconstriction inhibitory action thereof was observed. The vasoconstriction inhibitory actions of the test compounds are shown in Table 6 mentioned below as the relaxation ratios, which are based on the vasoconstriction with phenylephrine immediately before the addition of the test compound taken as 100%.

[2] = system: ovalbumin-induced constriction of respiratory tract; experiment: Respiratory tract constriction suppression action (Test Example 3); type: in vivo, Hartley guinea pigs; details: ovalbumin-immunized guinea pigs; test medicament via hind leg vein; 15 minutes after administration
Method: Four-week old Hartley guinea pigs (male) were immunized by intraperitoneal administration of ovalbumin (Sigma, Grade V) in amounts of 1 mg for each animal on the day on which the experiment was started, 3 mg for each animal after 2 days, and 10 mg for each animal after 4 days. Twelve to fourteen days after the final immunization, the ovalbumin-immunized guinea pigs were anesthetized by intraperitoneal administration of about 40 mg/kg of pentobarbital (Somnopentyl), and the tracheas were taken out. Subsequently, a cannula (SP-110, Natsume) was inserted into each trachea, and one end of the cannula was connected to an artificial respirator (Model-b83, Harvard). The aeration conditions were set at 6 ml per kilogram and 60 times per 1 minute. Further, a cannula for medicament administration (JMS wing needle 23G 3/4) was inserted into a hind leg vein. Myoblock (Organon Technica) was administered in an amount of 0.5 mg/kg from the cannula inserted into the hind leg vein to stop the spontaneous breathing, and after 2 or 3 minutes, 0.3 mg/kg of ovalbumin was administered to induce constriction of respiratory tract. The increase of airway resistance value 2 minutes after the induction (measurement apparatuses: pressure transducer TR-603T, respiratory amplifier AR-601G, and recorder RTA-3100, Nihon Kohden Corp.) was confirmed to be above 80 cm H2O or higher, and then, a solution of a test medicament was administered from the cannula inserted into the hind leg vein, and the airway resistance value was continuously measured for 15 minutes after the administration to determine the effect.

intraocular pressure = experiment: Intraocular pressure reducing action (Test Example 4); type: in vivo, Japanese white rabbit; details: for intraocular pressure reducing activity: result in words, rabbit; for inhibition in vivo at 1 %, 50 µL: Oryctolagus cuniculus, topical, 1% aqueous solution, 50 μl dropped to the left eye, after 2 hours, read-out: Intraocular pressure reducing action (reduction ratio) (%)
Method: A Japanese white rabbit having a body weight of about 2 kg was placed in a positioner and naturalized for one week before the experiment. An ophthalmologic local anesthesant (Benoxil) was administered to the left eye, and then intraocular pressure was measured by using a tonometer (Classic 30, Solan). The initial value of the intraocular pressure was measured, then 50 μl of a test compound (1% aqueous solution) was dropped to the left eye, and after 2 hours, the intraocular pressure was measured. The intraocular pressure reducing action of the test compounds is shown in Table 7 mentioned below as ratios (%) of reduction of intraocular pressure based on the initial value of the intraocular pressure.

[3] = system: OVA-induced respiratory tract inflammation; experiment: Respiratory tract inflammation suppressing action (Test Example 6); type: in vivo, BALB/c female mice; details: result in words; OVA mice
Method: According to the method described in Henderson, W. R., et al., Am. J. Respir. Cric. Care Med., 165(1), 108–116 (2002), suppressing action on bronchial inflammation was confirmed. BALB/c female mice (7-week old) were used for the test, each group consisting of 7 mice, and the control group consisting of 11 or 12 mice. The mice were intraperitoneally administered with ovalbumin (OVA, 100 ng, Sigma) and 1 mg of aluminum hydroxide for initial immunization, and after 2 weeks, they are subcutaneously administered with 10 ng of OVA as additional immunization. After further 1 week, a test compound was dissolved in water containing 0.5% carboxymethylcellulose and orally administered (30 mg/kg) to the test animals once a day for 5 days. The control group was similarly given only with water containing 0.5% carboxymethylcellulose. After 1 hour, the mice were orally inhaled with 2% OVA for 10 minutes to induce a respiratory tract inflammation. […] After 24 hours, alveoli in the lungs of the test animals were washed with physiological saline, and the total infiltrated white blood cells (WBC) were counted.

[4] = biological target: T1, myosin light chain phosphorylation enzyme (MLCK) (Gallus gallus, UniProt P11799); experiment: Action on myosin light chain phosphorylation enzyme (MLCK) activity; type: biochemical, chicken; details: for inhibition of MLCK: result in words; for IC50: MLCK from chicken gizzard smooth muscle, ELISA, 100 μM ATP, read-out: Myosin light chain phosphorylation enzyme inhibitory action IC50
T1 construct: purified from chicken gizzard smooth muscle by a conventional method; from tissue; host or cells: chicken gizzard smooth muscle
Method: A myosin light chain phosphorylation enzyme (MLCK) was purified from chicken gizzard smooth muscle by a conventional method (Yoshida, M., et al., J. Biochem., 99, 1027–1036 (1986)). The myosin regulatory light chain as a substrate was purified from the chicken gizzard smooth muscle by a conventional method (Grand, R. J., et al., Biochem. J., 211, 267–272 (1983)). The MLCK activity was measured by ELISA using pLC1 described in Test Example 1 (Sakurada, K., et al., J. Biochem., 115, 18–21 (1994)). The myosin regulatory light chain was diluted in phosphate-buffered saline (PBS, Sigma) to a concentration of 5.0 µg/ml, added to 96-well Immunoplate (Nunc) in a volume of 100 μl per well and left stand overnight at 4° C. Each well was washed with PBS, and 25 mM Tris/HCl buffer containing 100 μM ATP, 3 mM MgCl2, 1 mM CaCl2, 100 ng/ml of calmodulin (Sigma) and 100 ng/ml of MLCK (pH 7.4, Buffer A) was added to each well and incubated at 30° C. for 10 minutes. In a volume of 100 μl each of 20% aqueous phosphoric acid solution was added to each well to terminate the enzymatic reaction. Each well was washed with 25 mM Tris/HCl buffer (TTBS) containing 0.1% Tween 20, and then 100 μl each of pLC1 described in Test Example 1 was added to each well and incubated at room temperature for 90 minutes.
Each well was washed with TTBS, and then 100 μl of the HRP-labeled rabbit anti-mouse IgG antibodies (Bio-Rad) were added to each well and incubated at room temperature for 90 minutes. Each well was washed with TTBS, and then 25 mM citrate buffer (pH 5.0) containing orthophenylenediamine (Sigma) as a substrate of HRP and aqueous hydrogen peroxide (0.03%) was added in a volume of 100 μl per well and incubated at room temperature for 5 minutes. 50 μl of 4 N sulfuric acid was added to each well to terminate the reaction, and then absorbance was measured by using an immunoplate reader (Bio-Rad).

| inhibition of MLCK [4] | IC50 [4] | SMILES | vasoconstriction inhibitory action [1] | constriction of respiratory tract (airway resistance value) [2] | intraocular pressure reducing activity (intraocular pressure) | inhibition in vivo at 1 %, 50 µL (intraocular pressure) | infiltrated white blood cell number [3] |
| --- | --- | --- | --- | --- | --- | --- | --- |
|  |  | Cc1cncc2cccc(O[C@H]3CC[C@H](N)CC3)c12.Cl [Example 140, Trans-4-[(4-methyl-5-isoquinolyl)oxy]cyclohexylamine hydrochloride] | significant vasoconstriction inhibitory action | significantly improved the constriction of respiratory tract | significant intraocular pressure reducing activity |  |  |
| did not inhibit MLCK |  | Cc1cncc2cccc(NC3CCNCC3)c12.Cl [Example 106, 4-(4-Methyl-5-isoquinolyl)aminopiperidine hydrochloride] | significant vasoconstriction inhibitory action | significantly improved the constriction of respiratory tract |  | 31.3% | decrease of infiltrated white blood cell number |
|  |  | Cc1cncc2cccc(N[C@H]3CC[C@H](N)CC3)c12.Cl [Example 121, Trans-N-(4-methyl-5-isoquinolyl)-1,4-cyclohexanediamine hydrochloride] | significant vasoconstriction inhibitory action | significantly improved the constriction of respiratory tract |  | 31.3% |  |
|  |  | Cl.N[C@H]1CC[C@H](Oc2cccc3cncc(Br)c23)CC1 [Example 133, Trans-4-[(4-bromo-5-isoquinolyl)oxy]cyclohexylamine hydrochloride] |  | significantly improved the constriction of respiratory tract | significant intraocular pressure reducing activity |  |  |
|  |  | Cc1cncc2cccc(NC3CCN(CCO)CC3)c12.Cl [Example 146, 1-(2-Hydroxyethyl)-4-(4-methyl-5-isoquinolyl)aminopiperidine hydrochloride] | significant vasoconstriction inhibitory action | significantly improved the constriction of respiratory tract | significant intraocular pressure reducing activity |  |  |
|  | > 100 µM | Cl.c1cc(NC2CCNCC2)c2ccncc2c1 [Example 20, 4-(5-Isoquinolyl)aminopiperidine hydrochloride] |  | significantly improved the constriction of respiratory tract |  | 35.7% |  |
|  |  | Cl.NCCN(CCS(=O)(=O)c1ccccc1)S(=O)(=O)c1cccc2c(O)nccc12 [Example 12, N-[(1-Hydroxy-5-isoquinolyl)sulfonyl]-N-[2-(phenylsulfonyl)ethyl]ethylenediamine hydrochloride] | significant vasoconstriction inhibitory action | significantly improved the constriction of respiratory tract |  | 13.3% |  |
|  | > 50 µM | Cl.NCCCN(CCc1cccs1)S(=O)(=O)c1cccc2cnccc12 [Example 2, N-[(5-Isoquinolyl)sulfonyl]-N-[2-(2-thienyl)ethyl]-1,3-propylenediamine hydrochloride] | significant vasoconstriction inhibitory action | significantly improved the constriction of respiratory tract |  |  |  |
|  |  | Cl.Nc1nccc2c(OCC3CCCNC3)cccc12 (centres unmarked) [Example 11, 3-[(1-Amino-5-isoquinolyl)oxy]methylpiperidine hydrochloride] |  | significantly improved the constriction of respiratory tract |  |  |  |
|  |  | c1cc(NC2CCCNC2)c2ccncc2c1 (racemic) [Example 29, 3-N-(5-Isoquinolyl)aminopiperidine hydrochloride] |  | significantly improved the constriction of respiratory tract |  |  |  |
|  |  | Cl.Clc1cncc2cccc(NC3CCNCC3)c12 [Example 118, 4-(4-Chloro-5-isoquinolyl)aminopiperidine hydrochloride] |  | significantly improved the constriction of respiratory tract |  | 25% |  |
| did not inhibit MLCK |  | Cl.OCCN1CCC(Nc2cccc3cnccc23)CC1 [Example 144, 1-(2-Hydroxyethyl)-4-(5-isoquinolyl)aminopiperidine hydrochloride] |  | significantly improved the constriction of respiratory tract | significant intraocular pressure reducing activity |  |  |
